Experimental data reported in ChEMBL document CHEMBL1125565, “Hypoxia-selective antitumor agents. 6. 4-(Alkylamino)nitroquinolines: a new class of hypoxia-selective cytotoxins” (J Med Chem, 1992).

How the values were obtained:
CHO-AA8 [1] = assay: cells; conditions: Cricetulus griseus, CHO-AA8, 18 h
Description: Growth inhibition in CHO subline AA8 cells exposed for 18 hr under aerobic(air) conditions

Nucleic Acid [2] = test system: Nucleic Acid
Description: (§1) Inhibitory concentration against DNA-bound ethidium bromide

physchem [3] = conditions: aqueous solution
Description: (§2) Compound was evaluated for quinoline pKa value in aqueous solution at 25 degree Celsius by spectrophotometry

physchem [4] = conditions: aqueous solution; remark: listed apart in the source
Description: as §2

CHO-AA8 [5] = assay: cells; conditions: Cricetulus griseus, CHO-AA8, 18 h; remark: listed apart in the source
Description: Growth inhibitory activity against CHO subline AA8 cells exposed for 18 hr under aerobic conditions

Nucleic Acid [6] = test system: Nucleic Acid; remark: listed apart in the source
Description: as §1

Compound | IC50 (CHO-AA8 [1]) | C50 (Nucleic Acid [2]) | pKa (physchem [3]) | pKa (physchem [4]) | IC50 (CHO-AA8 [5]) | C50 (Nucleic Acid [6])
COCC(O)Cn1ccnc1[N+](=O)[O-] (configuration not stated) [MISONIDAZOLE] | 12100 µM |  |  |  |  | 
CN(C)CCCNc1c([N+](=O)[O-])cnc2ccccc12 | 34 µM | 5 µM | 4.43 |  |  | 
CN(C)CCNc1ccnc2cccc([N+](=O)[O-])c12 | 20.9 µM | 1.5 µM |  | 5.77 |  | 
CN(C)CCCNc1ccnc2cc([N+](=O)[O-])ccc12 | 46 µM | 0.9 µM | 6.77 |  |  | 
Cc1ccc2c(NCCCN(C)C)ccnc2c1[N+](=O)[O-] | 253 µM | 4.6 µM |  | 5.51 |  | 
CN(C)CCCCNc1ccnc2cccc([N+](=O)[O-])c12 | 9 µM | 3.1 µM |  | 6.71 |  | 
Cc1cc2nccc(NCCCN(C)C)c2cc1[N+](=O)[O-] | 28 µM | 2.3 µM |  | 7.38 |  | 
Cc1cc(NCCCN(C)C)c2c([N+](=O)[O-])cccc2n1 | 6.6 µM | 1.1 µM |  | 6.41 |  | 
CN(C)CCCNc1cc[n+](C)c2cccc([N+](=O)[O-])c12 |  |  |  |  | 5.8 µM | 3.6 µM
Cc1ccc([N+](=O)[O-])c2c(NCCCN(C)C)ccnc12 | 29 µM | 3 µM |  | 6.84 |  | 
COc1ccc([N+](=O)[O-])c2c(NCCCN(C)C)ccnc12 | 6.8 µM |  |  | 6.76 |  | 
CN(C)CCCNc1ccnc2c([N+](=O)[O-])cccc12 | 93 µM | 1.2 µM |  | 6.91 |  | 
CNc1ccc([N+](=O)[O-])c2c(NCCCN(C)C)ccnc12 |  |  |  | 4.22 | 98 µM | 
Cc1nc2ccccc2c(NCCCN(C)C)c1[N+](=O)[O-] | 226 µM | 8.6 µM |  | 5.35 |  | 
CN(C)CCCNc1ccnc2ccc([N+](=O)[O-])cc12 | 34 µM | 1 µM | 6.99 |  |  | 
Cc1cnc2cccc([N+](=O)[O-])c2c1NCCCN(C)C | 33 µM | 1 µM |  | 6.01 |  | 
CN(C)CCCNc1c2ccccc2nc2cccc([N+](=O)[O-])c12 [NITRACRINE] |  |  |  |  | 0.024 µM | 
CN(C)CCCNc1ncnc2cccc([N+](=O)[O-])c12 | 82 µM | 4.3 µM |  | 4.05 |  | 
Cc1c([N+](=O)[O-])ccc2c(NCCCN(C)C)ccnc12 | 21 µM | 2.9 µM |  | 6.71 |  | 
CN(C)CCCNc1ccnc2ccccc12 | 125 µM | 4.6 µM | 8.85 |  |  | 
Cc1ccc2nccc(NCCCN(C)C)c2c1[N+](=O)[O-] | 170 µM | 3.1 µM |  | 6.15 |  | 
CN(C)CCN(C)c1ccnc2cccc([N+](=O)[O-])c12 | 95 µM | 3.9 µM |  | 4.86 |  | 
CN(C)CCCNc1ccnc2cccc([N+](=O)[O-])c12 | 12.4 µM | 1.1 µM | 6.39 |  |  | 
